What was measured:
EGFR = EGFR (Homo sapiens, UniProt P00533); experiment: Kinase panel profiling at 1 µmol/L (mobility shift assay, Carna); details: for Percentage inhibition of kinase enzyme activity: EGFR, 1 µmol/L of BTK inhibitor
Erk5 = molecular target: T1, Erk5 (Homo sapiens, UniProt Q13164); experiment: as above; assay type: biochemical; details: 1 µmol/L of BTK inhibitor
T1 construct: purchased Carna Biosciences

RSK4 = molecular target: T2, RSK4 (Homo sapiens, UniProt Q9UK32); experiment: as above; assay type: biochemical; details: 1 µmol/L of BTK inhibitor
T2 construct: purchased Carna Biosciences

LYNb = molecular target: T3, LYNb (Homo sapiens, UniProt P07948); experiment: as above; assay type: biochemical; details: 1 µmol/L of BTK inhibitor
T3 construct: purchased Carna Biosciences
T3 sequence (P07948 1-491 isoform P07948-2): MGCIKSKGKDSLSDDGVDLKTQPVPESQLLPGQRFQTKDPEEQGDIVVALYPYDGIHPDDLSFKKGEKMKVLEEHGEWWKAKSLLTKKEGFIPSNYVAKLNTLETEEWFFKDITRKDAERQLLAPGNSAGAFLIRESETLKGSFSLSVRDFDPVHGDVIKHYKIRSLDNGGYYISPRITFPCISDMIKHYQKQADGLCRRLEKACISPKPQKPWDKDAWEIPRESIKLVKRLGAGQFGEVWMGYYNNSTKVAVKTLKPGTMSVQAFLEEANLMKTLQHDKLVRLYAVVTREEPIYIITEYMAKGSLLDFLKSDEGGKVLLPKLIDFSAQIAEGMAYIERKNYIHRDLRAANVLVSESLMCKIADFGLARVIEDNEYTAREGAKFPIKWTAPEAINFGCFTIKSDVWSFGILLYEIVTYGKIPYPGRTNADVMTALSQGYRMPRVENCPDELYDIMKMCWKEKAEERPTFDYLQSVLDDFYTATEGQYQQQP

FGFR4 = FGFR4 (Homo sapiens, UniProt P22455); experiment: Kinase enzyme activity assay (mobility shift assay, Carna); details: for Percentage inhibition of kinase enzyme activity: FGFR4, 1 µmol/L of BTK inhibitor
Sequence of FGFR4 (P22455 22-802): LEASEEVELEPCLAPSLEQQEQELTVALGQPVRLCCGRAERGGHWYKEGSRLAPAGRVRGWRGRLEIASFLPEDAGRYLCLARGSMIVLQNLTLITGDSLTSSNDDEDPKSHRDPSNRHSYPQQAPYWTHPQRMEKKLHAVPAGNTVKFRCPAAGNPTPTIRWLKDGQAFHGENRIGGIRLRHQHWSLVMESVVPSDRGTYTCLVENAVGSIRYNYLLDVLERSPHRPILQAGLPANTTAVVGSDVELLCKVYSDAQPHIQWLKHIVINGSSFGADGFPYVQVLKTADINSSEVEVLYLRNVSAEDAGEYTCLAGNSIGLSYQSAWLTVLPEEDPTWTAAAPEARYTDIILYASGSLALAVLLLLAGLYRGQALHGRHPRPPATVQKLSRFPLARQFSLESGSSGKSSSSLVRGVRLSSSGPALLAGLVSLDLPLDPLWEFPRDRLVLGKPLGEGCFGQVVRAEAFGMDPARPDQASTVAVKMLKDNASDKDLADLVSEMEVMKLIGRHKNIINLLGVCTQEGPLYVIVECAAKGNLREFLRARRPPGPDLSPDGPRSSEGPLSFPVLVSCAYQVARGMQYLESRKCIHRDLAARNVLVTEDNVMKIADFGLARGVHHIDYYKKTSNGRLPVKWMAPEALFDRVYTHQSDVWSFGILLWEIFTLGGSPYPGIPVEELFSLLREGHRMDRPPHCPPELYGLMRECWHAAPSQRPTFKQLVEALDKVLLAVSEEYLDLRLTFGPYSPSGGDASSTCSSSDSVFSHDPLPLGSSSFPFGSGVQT

LTK = molecular target: T4, LTK (Homo sapiens, UniProt P29376); experiment: Kinase panel profiling at 1 µmol/L (mobility shift assay, Carna); assay type: biochemical; details: 1 µmol/L of BTK inhibitor
T4 construct: purchased Carna Biosciences

PKD1 = molecular target: T5, PKD1 (Homo sapiens, UniProt Q15139); experiment: as above; assay type: biochemical; details: 1 µmol/L of BTK inhibitor
T5 construct: purchased Carna Biosciences
T5 sequence (Q15139 1-912): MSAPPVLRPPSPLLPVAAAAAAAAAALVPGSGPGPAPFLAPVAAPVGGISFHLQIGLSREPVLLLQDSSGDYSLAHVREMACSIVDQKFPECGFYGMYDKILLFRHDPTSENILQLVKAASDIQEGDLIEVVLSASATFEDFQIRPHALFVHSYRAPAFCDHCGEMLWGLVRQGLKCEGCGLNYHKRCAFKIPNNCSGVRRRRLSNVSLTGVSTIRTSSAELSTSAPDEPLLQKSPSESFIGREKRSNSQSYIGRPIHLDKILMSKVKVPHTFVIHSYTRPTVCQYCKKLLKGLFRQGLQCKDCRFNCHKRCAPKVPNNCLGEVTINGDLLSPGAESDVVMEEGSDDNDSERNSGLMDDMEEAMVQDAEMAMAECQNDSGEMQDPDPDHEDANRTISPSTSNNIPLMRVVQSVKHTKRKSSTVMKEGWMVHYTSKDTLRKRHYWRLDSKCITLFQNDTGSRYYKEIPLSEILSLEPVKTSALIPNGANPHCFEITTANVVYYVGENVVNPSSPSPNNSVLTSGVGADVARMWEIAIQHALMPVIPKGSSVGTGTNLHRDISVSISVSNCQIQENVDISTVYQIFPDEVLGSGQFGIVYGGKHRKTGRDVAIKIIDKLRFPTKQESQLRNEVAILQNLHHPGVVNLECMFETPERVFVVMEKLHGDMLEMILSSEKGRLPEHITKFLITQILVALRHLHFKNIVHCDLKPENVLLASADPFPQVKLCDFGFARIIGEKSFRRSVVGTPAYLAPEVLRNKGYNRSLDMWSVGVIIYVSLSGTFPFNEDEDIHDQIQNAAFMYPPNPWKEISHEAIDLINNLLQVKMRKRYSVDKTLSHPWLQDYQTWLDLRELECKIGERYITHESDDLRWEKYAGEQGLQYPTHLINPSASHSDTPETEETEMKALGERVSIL

PBK = molecular target: T6, PBK (Homo sapiens, UniProt Q96KB5); experiment: as above; assay type: biochemical; details: 1 µmol/L of BTK inhibitor
T6 construct: purchased Carna Biosciences
T6 sequence (Q96KB5 1-322): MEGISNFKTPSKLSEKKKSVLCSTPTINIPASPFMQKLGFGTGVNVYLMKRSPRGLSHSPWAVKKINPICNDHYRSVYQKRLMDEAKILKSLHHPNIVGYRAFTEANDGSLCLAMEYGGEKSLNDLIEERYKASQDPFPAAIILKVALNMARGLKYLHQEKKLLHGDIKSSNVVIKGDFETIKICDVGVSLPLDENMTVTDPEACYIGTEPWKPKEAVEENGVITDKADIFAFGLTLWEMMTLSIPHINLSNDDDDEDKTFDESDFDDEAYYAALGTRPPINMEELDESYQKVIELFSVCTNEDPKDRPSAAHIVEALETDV

FER = molecular target: T7, FER (Homo sapiens, UniProt P16591); experiment: as above; assay type: biochemical; details: 1 µmol/L of BTK inhibitor
T7 construct: purchased Carna Biosciences

MRCKα = molecular target: T8, MRCKα (Homo sapiens, UniProt Q5VT25); experiment: as above; assay type: biochemical; details: 1 µmol/L of BTK inhibitor
T8 construct: purchased Carna Biosciences

PDGFRα = PDGFRα (Homo sapiens, UniProt P16234); experiment: Kinase enzyme activity assay (mobility shift assay, Carna); details: for Percentage inhibition of kinase enzyme activity: PDGFRα, 1 µmol/L of BTK inhibitor
Sequence of PDGFRα (P16234 24-1089): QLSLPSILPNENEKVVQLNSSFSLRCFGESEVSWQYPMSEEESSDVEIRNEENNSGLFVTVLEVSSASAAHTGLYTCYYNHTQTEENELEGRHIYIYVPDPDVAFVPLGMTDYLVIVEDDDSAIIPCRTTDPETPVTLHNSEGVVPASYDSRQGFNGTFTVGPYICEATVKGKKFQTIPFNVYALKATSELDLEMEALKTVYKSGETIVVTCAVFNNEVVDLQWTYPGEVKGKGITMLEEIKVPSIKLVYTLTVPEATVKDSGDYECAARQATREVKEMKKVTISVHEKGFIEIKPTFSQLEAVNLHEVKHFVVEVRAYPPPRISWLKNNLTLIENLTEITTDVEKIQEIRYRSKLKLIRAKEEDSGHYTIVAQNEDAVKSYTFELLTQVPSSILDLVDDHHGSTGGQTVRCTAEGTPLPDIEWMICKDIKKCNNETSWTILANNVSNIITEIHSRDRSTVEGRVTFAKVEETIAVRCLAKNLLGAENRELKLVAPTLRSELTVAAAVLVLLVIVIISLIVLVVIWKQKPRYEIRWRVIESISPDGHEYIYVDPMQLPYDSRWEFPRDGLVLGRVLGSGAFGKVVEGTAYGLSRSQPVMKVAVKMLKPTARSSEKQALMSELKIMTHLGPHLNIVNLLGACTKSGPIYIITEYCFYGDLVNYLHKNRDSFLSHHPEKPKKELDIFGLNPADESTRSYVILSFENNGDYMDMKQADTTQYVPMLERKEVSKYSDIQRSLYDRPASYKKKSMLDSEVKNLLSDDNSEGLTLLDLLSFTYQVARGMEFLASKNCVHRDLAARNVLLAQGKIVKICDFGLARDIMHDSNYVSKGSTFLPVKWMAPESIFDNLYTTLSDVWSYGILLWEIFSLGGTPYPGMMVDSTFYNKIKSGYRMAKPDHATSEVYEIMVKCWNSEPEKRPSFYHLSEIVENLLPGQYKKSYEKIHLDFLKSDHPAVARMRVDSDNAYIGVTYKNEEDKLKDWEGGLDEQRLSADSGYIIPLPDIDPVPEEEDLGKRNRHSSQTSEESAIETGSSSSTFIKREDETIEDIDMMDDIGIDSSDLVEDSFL

BRK = BRK (Homo sapiens, UniProt Q13882); experiment: Kinase panel profiling at 1 µmol/L (mobility shift assay, Carna); details: for Percentage inhibition of kinase enzyme activity: BRK, 1 µmol/L of BTK inhibitor
Sequence of BRK (Q13882 whole entry): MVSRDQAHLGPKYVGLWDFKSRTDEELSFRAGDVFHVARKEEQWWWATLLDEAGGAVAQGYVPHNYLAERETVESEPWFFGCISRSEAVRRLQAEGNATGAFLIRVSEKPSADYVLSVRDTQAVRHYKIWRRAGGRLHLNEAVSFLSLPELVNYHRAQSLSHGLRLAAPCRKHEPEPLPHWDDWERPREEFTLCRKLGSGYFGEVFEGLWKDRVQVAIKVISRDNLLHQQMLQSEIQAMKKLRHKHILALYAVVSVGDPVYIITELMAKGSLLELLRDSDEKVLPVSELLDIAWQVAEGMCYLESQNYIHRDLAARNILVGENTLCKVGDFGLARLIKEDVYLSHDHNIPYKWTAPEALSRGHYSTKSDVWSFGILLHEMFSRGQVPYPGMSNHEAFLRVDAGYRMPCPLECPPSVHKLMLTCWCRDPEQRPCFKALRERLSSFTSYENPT

T1 sequence (Q13164 whole entry): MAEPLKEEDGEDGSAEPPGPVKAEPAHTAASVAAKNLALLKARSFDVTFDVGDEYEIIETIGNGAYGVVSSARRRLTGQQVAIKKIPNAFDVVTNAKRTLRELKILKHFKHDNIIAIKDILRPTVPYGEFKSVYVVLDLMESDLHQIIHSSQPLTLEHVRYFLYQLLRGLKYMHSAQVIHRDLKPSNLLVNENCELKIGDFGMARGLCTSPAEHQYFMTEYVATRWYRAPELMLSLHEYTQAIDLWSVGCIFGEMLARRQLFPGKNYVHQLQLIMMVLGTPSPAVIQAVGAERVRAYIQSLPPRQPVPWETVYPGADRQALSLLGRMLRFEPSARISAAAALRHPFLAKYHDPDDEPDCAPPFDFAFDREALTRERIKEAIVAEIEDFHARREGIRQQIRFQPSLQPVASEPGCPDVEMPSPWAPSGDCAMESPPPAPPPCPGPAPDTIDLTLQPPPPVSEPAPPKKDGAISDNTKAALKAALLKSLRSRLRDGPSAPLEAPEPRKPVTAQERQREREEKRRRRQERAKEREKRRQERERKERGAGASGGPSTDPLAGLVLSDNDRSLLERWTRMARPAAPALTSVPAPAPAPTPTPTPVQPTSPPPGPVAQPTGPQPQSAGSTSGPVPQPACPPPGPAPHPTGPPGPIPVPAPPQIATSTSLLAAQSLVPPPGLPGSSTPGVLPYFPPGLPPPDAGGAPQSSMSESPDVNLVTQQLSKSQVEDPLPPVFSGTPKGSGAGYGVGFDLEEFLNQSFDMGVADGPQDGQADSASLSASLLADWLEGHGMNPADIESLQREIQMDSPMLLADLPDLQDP
Sequence of EGFR (P00533 25-1210): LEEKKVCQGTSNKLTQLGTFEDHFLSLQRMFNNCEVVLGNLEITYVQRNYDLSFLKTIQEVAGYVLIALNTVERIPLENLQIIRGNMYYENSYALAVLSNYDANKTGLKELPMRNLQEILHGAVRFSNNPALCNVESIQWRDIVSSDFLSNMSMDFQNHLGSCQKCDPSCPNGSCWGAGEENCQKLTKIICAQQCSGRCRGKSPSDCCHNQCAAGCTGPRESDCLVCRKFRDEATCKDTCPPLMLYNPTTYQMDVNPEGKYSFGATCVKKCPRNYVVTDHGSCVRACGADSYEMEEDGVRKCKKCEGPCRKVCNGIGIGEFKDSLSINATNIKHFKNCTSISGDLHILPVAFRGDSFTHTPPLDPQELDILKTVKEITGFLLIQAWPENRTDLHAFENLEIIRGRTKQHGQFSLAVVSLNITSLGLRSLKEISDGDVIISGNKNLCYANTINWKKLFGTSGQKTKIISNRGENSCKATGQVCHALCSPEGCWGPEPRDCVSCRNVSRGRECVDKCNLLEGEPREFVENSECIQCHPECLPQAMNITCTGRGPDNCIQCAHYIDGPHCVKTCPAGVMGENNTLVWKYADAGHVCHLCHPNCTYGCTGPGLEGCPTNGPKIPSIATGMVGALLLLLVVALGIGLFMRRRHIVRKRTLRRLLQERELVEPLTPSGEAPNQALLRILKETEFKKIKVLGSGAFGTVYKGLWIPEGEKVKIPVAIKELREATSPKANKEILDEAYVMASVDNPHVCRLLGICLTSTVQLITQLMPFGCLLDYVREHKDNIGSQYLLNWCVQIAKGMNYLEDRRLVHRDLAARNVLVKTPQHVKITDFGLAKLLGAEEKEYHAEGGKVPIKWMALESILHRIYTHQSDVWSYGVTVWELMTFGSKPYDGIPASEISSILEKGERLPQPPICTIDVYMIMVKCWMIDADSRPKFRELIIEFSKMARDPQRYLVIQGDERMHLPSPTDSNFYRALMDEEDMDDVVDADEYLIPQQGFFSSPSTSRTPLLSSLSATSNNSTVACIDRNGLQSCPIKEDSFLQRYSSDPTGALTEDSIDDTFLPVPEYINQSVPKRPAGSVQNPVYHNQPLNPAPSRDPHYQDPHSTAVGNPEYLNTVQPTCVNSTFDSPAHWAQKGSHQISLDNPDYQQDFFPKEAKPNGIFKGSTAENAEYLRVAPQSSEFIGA

CC#CC(=O)N1CCC[C@H]1c1nc(-c2ccc(C(=O)Nc3ccccn3)cc2)c2c(N)nccn12 [acalabrutinib]
Percentage inhibition of kinase enzyme activity (EGFR): 19.39% | Percentage inhibition of kinase enzyme activity (Erk5): -2.12% | Percentage inhibition of kinase enzyme activity (RSK4): 4.21% | Percentage inhibition of kinase enzyme activity (LYNb): -1.97% | Percentage inhibition of kinase enzyme activity (FGFR4): -8.97% | Percentage inhibition of kinase enzyme activity (LTK): 10.06% | Percentage inhibition of kinase enzyme activity (PKD1): -9.48% | Percentage inhibition of kinase enzyme activity (PBK): -15.29% | Percentage inhibition of kinase enzyme activity (FER): -2.54% | Percentage inhibition of kinase enzyme activity (MRCKα): -7.47% | Percentage inhibition of kinase enzyme activity (PDGFRα): 1.38% | Percentage inhibition of kinase enzyme activity (BRK): 51.05%

C=CC(=O)N1CCC[C@@H](n2nc(-c3ccc(Oc4ccccc4)cc3)c3c(N)ncnc32)C1 [ibrutinib]
Percentage inhibition of kinase enzyme activity (Erk5): 3.89% | Percentage inhibition of kinase enzyme activity (RSK4): 5.52% | Percentage inhibition of kinase enzyme activity (LYNb): 100.13% | Percentage inhibition of kinase enzyme activity (FGFR4): 36.91% | Percentage inhibition of kinase enzyme activity (LTK): 2.76% | Percentage inhibition of kinase enzyme activity (PKD1): 3.22% | Percentage inhibition of kinase enzyme activity (PBK): -9.30% | Percentage inhibition of kinase enzyme activity (MRCKα): -0.62% | Percentage inhibition of kinase enzyme activity (PDGFRα): 94.28% | Percentage inhibition of kinase enzyme activity (BRK): 102.78%

O=C(c1ccc(Oc2ccccc2)cc1Cl)c1c[nH]c2ncnc(N[C@@H]3CC[C@@H](CO)OC3)c12 [nemtabrutinib]
Percentage inhibition of kinase enzyme activity (EGFR): 99.77% | Percentage inhibition of kinase enzyme activity (Erk5): 15.76% | Percentage inhibition of kinase enzyme activity (RSK4): -2.32% | Percentage inhibition of kinase enzyme activity (LYNb): 66.12% | IC50 (FGFR4): 1400 nM | Percentage inhibition of kinase enzyme activity (FGFR4): 1.97% | Percentage inhibition of kinase enzyme activity (PKD1): 7.45% | Percentage inhibition of kinase enzyme activity (PBK): -7.49% | Percentage inhibition of kinase enzyme activity (FER): 96.49% | Percentage inhibition of kinase enzyme activity (MRCKα): 9.50% | IC50 (PDGFRα): 12.4 nM | Percentage inhibition of kinase enzyme activity (PDGFRα): 88.08%

COc1ccc(F)cc1C(=O)NCc1ccc(-c2nn([C@@H](C)C(F)(F)F)c(N)c2C(N)=O)cc1 [pirtobrutinib]
Percentage inhibition of kinase enzyme activity (EGFR): 85.26% | inhibition at 1 µM (EGFR; read-out: Inhibition of EGFR): > 75% | Percentage inhibition of kinase enzyme activity (Erk5): 0.51% | Percentage inhibition of kinase enzyme activity (RSK4): -0.12% | Percentage inhibition of kinase enzyme activity (LYNb): 26.06% | Percentage inhibition of kinase enzyme activity (FGFR4): 1.27% | Percentage inhibition of kinase enzyme activity (LTK): -0.40% | Percentage inhibition of kinase enzyme activity (PKD1): 4.89% | Percentage inhibition of kinase enzyme activity (PBK): -3.79% | Percentage inhibition of kinase enzyme activity (FER): 7.19% | Percentage inhibition of kinase enzyme activity (MRCKα): 0.63% | Percentage inhibition of kinase enzyme activity (PDGFRα): 3.06% | Percentage inhibition of kinase enzyme activity (BRK): 89.81% | inhibition at 1 µM (BRK; read-out: Inhibition of BRK): > 75%

C=CC(=O)N1CCC([C@@H]2CCNc3c(C(N)=O)c(-c4ccc(Oc5ccccc5)cc4)nn32)CC1 [zanubrutinib]
Percentage inhibition of kinase enzyme activity (FGFR4): 0.81% | Percentage inhibition of kinase enzyme activity (LTK): 55.84% | Percentage inhibition of kinase enzyme activity (FER): 1.42% | Percentage inhibition of kinase enzyme activity (PDGFRα): 3.66% | Percentage inhibition of kinase enzyme activity (BRK): 98.97%
